Assay results: US20050143391A1, “Heterocyclic amides with alpha-4 integrin antagonist activity” (J. Uriach Y Compañia S.A., priority 2002, published 2005)
pIC50: −log10 of the molar value.

Biological target: T1, integrin α4β1 (Homo sapiens, UniProt P05556+P13612)
T1 construct: endogenous in cells; host or cells: Jurkat cells
Assay: Inhibition of α4β1-dependent cell adhesion (Jurkat cells to peptide CS-1)
Type: cell-based
Details: adhesion of Jurkat cells to CS-1-coated plates; products preincubated with cells at 37° C. for 30 minutes; at least 6 product concentrations
Method: Inhibition of α4β1-Dependent Cell Adhesion
Inhibition of α4β1-dependent cell adhesion was assayed by evaluating the interaction between the peptide CS-1 (H-CLHGPEILDVPST-CONH2) and Jurkat cells (T lymphocyte cell line expressing activated integrin α4β1 but not integrin α4β7) after preincubation of said cells with the compounds of formula I to be tested. The peptide CS-1 was synthesized by conventional solid phase chemistry and purified by HPLC. Its identity was determined by elemental analysis and mass spectroscopy.
1.—Preparation of CS-1-Coated Plates
96-black well plates (Costar 3925) were used. 200 μL of 2% bovine serum albumin solution (BSA, Sigma α4503) was added per well and the plate was incubated for 2 hours at 37° C. The solution was discarded and the plate was washed twice with 200 μL of phosphate buffered saline solution (PBS, Gibco 14190-094) per well. Then, 200 μL of 10 μg/mL N-succinimidyl 3-(2-pyridyldithio)propionate solution (SPDP, Sigma P-3415) was added per well, and the plate was incubated at 37° C. for 30 minutes. The remaining solution was discarded and the plate was twice washed with 200 μL per well of PBS. Next, 200 μL of 25 μg/mL CS-1 peptide solution (equivalent to 5 μg/well) was added per well and the plate was incubated at 37° C. for 2 hours and then overnight at 4° C.
2.—Jurkat Cell Line: Culture and Fluorescent Labelling
Jurkat cells were kept in culture at a density comprised between 2×10^5 and 1.5×10^6 cells/mL in 1640 RPMI medium (Gibco 21875-034) enriched with 10% fetal calf serum (FCS, Gibco 10270-106).
50×10^6 cells were extracted, centrifuged (1200 rpm, 10 min, room temperature) and the medium was discarded. Cells were resuspended in 5 mL of RPMI, and 10 μL of a 1 mM solution of the fluorophore calceine.AM (Molecular Probes, C-3100) was added. The suspension was incubated for 30 min at 37° C. in the darkness, with occasional shaking. 40 mL of RPMI was added to stop the labelling and the suspension was centrifuged (1200 rpm, 10 min, room temperature). The medium was discarded, and the labelled cells were washed with 40 mL of RPMI in order to remove the unincorporated fluorescent probe. Finally, cells were resuspended in RPMI enriched with 10% FCS to obtain a 8×10^6 cells/mL suspension.
The plate previously prepared was twice washed with 200 μL per well of PBS and blocked with 200 μL of 1% BSA for at least 1 hour at room temperature.
The products to be tested were dissolved in dimethylsulfoxide at a concentration of 10 mM and dilutions thereof were prepared in RPMI medium enriched with 10% FCS. The products were preincubated with the Jurkat cells at 37° C. for 30 minutes, at a product concentration comprised between 1 nM and 10 μM, at a cell density of 4×10^6 cells/mL and at a maximal dimethylsulfoxide concentration of 0.1%.
100 μL of the resulting cell-product supsension was added per well (cellular density 4×10^5 cells/well). The product was omitted in the control wells and cells or CS-1 were omitted in the blanks. The plate was incubated for 60 min at room temperature in the-darkness, was twice washed with 200 μL per well of RPMI and then 100 μL of PBS was added. The plate was read with a fluorescence reader at an excitation wavelength of 485 nm and at an emission wavelength of 530 nm.
Maximal adhesion (100%) was determined as the average of the fluorescence intensities (FI) of the control wells, and the minimal adhesion as the average FI of the blanks. The adhesion inhibition percentage was determined using the following formula: [formula]
The results are expressed as the IC50 values (concentration producing 50% inhibition). IC50 values were calculated by testing at least 6 product concentrations and by adjusting the inhibition percentages to a dose-response curve of variable slope.

T1 sequence (P13612 34-1032): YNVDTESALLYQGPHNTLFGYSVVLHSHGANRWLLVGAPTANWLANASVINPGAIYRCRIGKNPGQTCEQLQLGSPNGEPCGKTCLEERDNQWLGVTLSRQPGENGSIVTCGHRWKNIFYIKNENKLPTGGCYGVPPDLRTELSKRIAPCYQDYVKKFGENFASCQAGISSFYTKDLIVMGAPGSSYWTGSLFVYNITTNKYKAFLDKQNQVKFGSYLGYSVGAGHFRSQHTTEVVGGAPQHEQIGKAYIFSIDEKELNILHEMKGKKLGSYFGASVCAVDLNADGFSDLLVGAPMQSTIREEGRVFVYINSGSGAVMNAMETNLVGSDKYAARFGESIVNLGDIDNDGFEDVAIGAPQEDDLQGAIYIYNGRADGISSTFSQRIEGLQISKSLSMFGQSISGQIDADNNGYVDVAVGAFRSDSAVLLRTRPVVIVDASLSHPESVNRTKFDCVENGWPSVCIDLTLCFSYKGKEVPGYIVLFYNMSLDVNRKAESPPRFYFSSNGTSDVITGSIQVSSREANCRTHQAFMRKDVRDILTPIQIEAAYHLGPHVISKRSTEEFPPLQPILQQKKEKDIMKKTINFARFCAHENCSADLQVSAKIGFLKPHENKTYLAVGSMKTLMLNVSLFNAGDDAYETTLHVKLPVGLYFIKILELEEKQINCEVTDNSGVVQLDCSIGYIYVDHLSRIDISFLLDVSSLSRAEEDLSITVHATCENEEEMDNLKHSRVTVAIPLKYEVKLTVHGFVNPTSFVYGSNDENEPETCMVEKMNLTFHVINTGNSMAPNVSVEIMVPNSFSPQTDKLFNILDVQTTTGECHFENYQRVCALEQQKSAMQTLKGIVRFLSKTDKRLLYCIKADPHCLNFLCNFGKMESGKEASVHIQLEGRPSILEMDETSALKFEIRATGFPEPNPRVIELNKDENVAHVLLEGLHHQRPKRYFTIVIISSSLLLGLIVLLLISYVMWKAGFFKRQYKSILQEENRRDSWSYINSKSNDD
T1 sequence (P05556 21-798): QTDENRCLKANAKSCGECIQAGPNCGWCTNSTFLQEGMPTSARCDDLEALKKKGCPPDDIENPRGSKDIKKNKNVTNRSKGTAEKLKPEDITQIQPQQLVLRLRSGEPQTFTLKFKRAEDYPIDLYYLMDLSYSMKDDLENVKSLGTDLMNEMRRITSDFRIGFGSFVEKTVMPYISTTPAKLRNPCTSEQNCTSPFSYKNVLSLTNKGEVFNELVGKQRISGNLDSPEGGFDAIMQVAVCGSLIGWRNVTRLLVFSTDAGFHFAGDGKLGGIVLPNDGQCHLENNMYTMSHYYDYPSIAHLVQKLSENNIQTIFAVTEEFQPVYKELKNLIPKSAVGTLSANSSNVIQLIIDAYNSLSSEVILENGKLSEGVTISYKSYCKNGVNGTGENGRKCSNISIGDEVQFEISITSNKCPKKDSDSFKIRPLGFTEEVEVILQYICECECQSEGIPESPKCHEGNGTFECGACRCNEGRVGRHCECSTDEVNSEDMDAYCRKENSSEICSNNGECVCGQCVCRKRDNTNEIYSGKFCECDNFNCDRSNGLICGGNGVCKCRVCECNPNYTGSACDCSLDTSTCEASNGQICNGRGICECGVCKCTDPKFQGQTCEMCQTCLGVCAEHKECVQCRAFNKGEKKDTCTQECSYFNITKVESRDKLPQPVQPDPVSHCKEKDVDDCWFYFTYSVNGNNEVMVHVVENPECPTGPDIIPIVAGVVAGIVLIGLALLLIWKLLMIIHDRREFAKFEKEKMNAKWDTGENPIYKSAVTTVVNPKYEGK

Row | Compound | pIC50
1 | O=C(O)[C@H](CCC(=O)N1CCC(CN2CCCCC2)CC1)NC(=O)[C@@H]1CCCN1S(=O)(=O)c1cc(Cl)cc(Cl)c1 [Example 94, (2S)-2-[1-(3,5-Dichlorophenylsulfonyl)-L-prolylamino]-5-oxo-5-[4-(1-piperidylmethyl)piperidin-1-yl]pentanoic Acid] | 7.85
2 | CN(C)CC1CCN(C(=O)OC[C@H](NC(=O)[C@@H]2CCCN2S(=O)(=O)c2cc(Cl)cc(Cl)c2)C(=O)O)CC1 [Example 98, (2S)-2-[1-(3,5-Dichlorophenylsulfonyl)-L-prolyl]amino-3-[4-(dimethylaminomethyl)piperidin-1-ylcarbonyloxy]propionic Acid] | 7.75
3 | O=C(O)[C@H](CCC(=O)N1CCC(CN2CCCC2=O)CC1)NC(=O)[C@@H]1CCCN1S(=O)(=O)c1cc(Cl)cc(Cl)c1 [Example 71, (2S)-2-[1-(3,5-Dichlorophenylsulfonyl)-L-prolylamino]-5-[4-(2-oxopyrrolidin-1-ylmethyl)piperidin-1-yl]-5-oxopentanoic Acid] | 7.43
4 | CC(C)Nc1nc2cnccc2n1CC1CCN(C(=O)CC[C@H](NC(=O)[C@@H]2CCCN2S(=O)(=O)c2cc(Cl)cc(Cl)c2)C(=O)O)CC1 [Example 87, (2S)-2-[1-(3,5-Dichlorophenylsulfonyl)-L-prolylamino]-5-[(2-isopropylaminoimidazo[4,5-c]pyridin-1-ylmethyl)piperidin-1-yl]-5-oxopentanoic Acid] | 7.85
5 | CN1CCN(C(=O)OCCC2CCN(C(=O)NC[C@H](NC(=O)[C@@H]3CCCN3S(=O)(=O)c3cc(Cl)cc(Cl)c3)C(=O)O)CC2)CC1 [Example 116, (2S)-2-[1-(3,5-Dichlorophenylsulfonyl)-L-prolyl]amino-3-[[4-[2-[(4-methylpiperazin-1-yl)carbonyloxy]ethyl]piperidin-1-ylcarbonyl]amino]propionic Acid] | 8.01
6 | O=C(O)[C@H](CCC(=O)N1CCC(CN2CCOC2=O)CC1)NC(=O)[C@@H]1CCCN1S(=O)(=O)c1cc(Cl)cc(Cl)c1 [Example 70, (2S)-2-[1-(3,5-Dichlorophenylsulfonyl)-L-prolylamino]-5-oxo-5-[4-(2-oxooxazolidin-3-ylmethyl)piperidin-1-yl]pentanoic Acid] | 7.77
7 | CCc1nc2c(C)cc(C)nc2n1CC1CCN(C(=O)CC[C@H](NC(=O)[C@@H]2CCCN2S(=O)(=O)c2cc(Cl)cc(Cl)c2)C(=O)O)CC1 [Example 65] | 7.35
8 | CCOCCn1c(CN2CCN(C(=O)CC[C@H](NC(=O)[C@@H]3CCCN3S(=O)(=O)c3ccc(C)cc3)C(=O)O)CC2)nc2ccccc21 [Example 74, (2S)-5-[4-[[1-(2-Ethoxyethyl)benzimidazol-2-yl]methyl]piperazin-1-yl]-5-oxo-2-[[1-tosyl-L-prolyl]amino]pentanoic Acid] | 7.32
9 | Cc1ccc(S(=O)(=O)N2CCC[C@H]2C(=O)N[C@@H](CCC(=O)N2CCC(CN3CCCC3=O)CC2)C(=O)O)cc1 [Example 62, (2S)-5-Oxo-5-[4-[(2-oxopyrrolidin-1-yl)methyl]piperidin-1-yl]-2-[1-tosyl-L-prolylamino]pentanoic Acid] | 6.73
10 | (2S)-2-[1-(3,5-Dichlorophenylsulfonyl)-L-prolylamino]-5-oxo-5-[4-(1-pyrrolylmethyl)piperidin-1-yl]pentanoic Acid [Example 81] | 7.48
11 | CN1CCN(CC2CCN(C(=O)CC[C@H](NC(=O)[C@@H]3CCCN3S(=O)(=O)c3cc(Cl)cc(Cl)c3)C(=O)O)CC2)CC1 [Example 79, (2S)-2-[1-(3,5-Dichlorophenylsulfonyl)-L-prolylamino]-5-[4-(4-methylpiperazin-1-ylmethyl)piperidin-1-yl]-5-oxopentanoic Acid] | 8.12
12 | Cc1ccc(S(=O)(=O)N2CCC[C@H]2C(=O)N[C@@H](CCC(=O)N2CCC(Cn3ccnc3-c3ccccc3)CC2)C(=O)O)cc1 [Example 63, (2S)-5-Oxo-5-[4-(2-phenylimidazol-1-ylmethyl)piperidin-1-yl]-2-[1-tosyl-L-prolylamino]pentanoic Acid] | 6.70
